Results from patent US7453006B2, “Inositol derivatives for increasing chloride secretion and inhibiting inflammation” (Inologic, Inc., priority 2000, dated 2008).
“Also recorded” adds a separate entry of the source.

What was measured:
[1] = test system: T84 cells; test: Colonic Epithelial Cell Assay (Isc across T84 monolayers, Ussing chambers); assay type: cell-based, human; conditions: for Isc response to carbachol / Isc response to thapsigargin following carbachol: 400 μM, 30 min preincubation, T84
Description: Cl^− secretion in colonic epithelial cells was measured as short circuit current (Isc) across T84 monolayers grown to confluence on Snap-wells (Costar) and mounted in Ussing chambers equipped with voltage clamps (Physiologic Instruments, San Diego). Data was acquired and analyzed using AAcquire and Analyze@ software (Physiologic Instruments). T84 cells (passages 18-48) were maintained as described previously in McRoberts, J. A. et al., “Cyclic AMP and Ca^2+-activated K^+ transport pathway in the apical membrane of a human colonic epithelial cell line,” J. Biol. Chem. 260:14163-14172 (1985). After […] of incubation on Snap-wells, monolayers had formed tight junctions and were preincubated with […] Bt2D-myo-Ins(3,4,5,6)P4/AM for 30-min. prior to mounting. An extracellular concentration of 200 uM corresponds to an intracellular concentration of 4 uM (Vajanaphnich, et al., “Long-term uncoupling of chloride secretion from intracellular calcium levels by Ins(3,4,5,6)P4,” Nature 371:711-714 (1994)). […]

[2] = test system: arachidonic acid-induced inflammation in mouse ears; test: arachidonic acid-induced inflammation in mouse ears; assay type: in vivo; conditions: for Ear Thickness: 20 nanomoles/ear topical 30 min before arachidonic acid, measured 60 min after arachidonic acid, control 56.5 ± 1.57
Description: Arachidonic Acid (Nu-Chek, Elysian, Minn. 56028); Indomethacin (stock=12.5 mg/mL acetone). Prednisolone (Sigma Chem, P6004) 20 mM dissolved in acetone; Animals: Female Balb/c mice (B&K laboratories) and Swiss-Webster hybrid (B& K Laboratory, Kent, Wash.)
The right ear of each mouse was used for the test compound. Unless otherwise indicated each compound was adjusted to 20 mM by dilution into DMSO or DMSO/5% Pluronic F127 as indicated and 1 or 2 microliters were applied to the test ear. Thirty minutes after each compound was applied, 4 mg arachidonic acid was applied (4 μL/ear; 2 μL/side) to both ears of each mouse. Measurements of edema were taken 60 min after the application of arachidonic acid with microcalipers (Oditest, Scientific Supply and Equipment) unless otherwise indicated. The results are shown in FIG. 15 as millimeters×10^−2 measured at the thickest point of each ear. Control measurements were performed on ears that were only treated with arachidonic acid.
Response to prednisolone (20 μL of 20 mM/ear; 10 μl/side) added 3 hrs prior 20′ to arachidonic acid or indomethacin (5 μg/ear) added 30 min prior to test compounds was determined. The results are shown in Table A, where the anti-inflammatory/inflammatory effects of 20 nanomoles/ear of the indicated compounds were tested as described in Methods. Each plus represents a change from control (arachidonic acid alone) of 2.5 mm×10^−2. Effects were compared with those of Indomethacin (400 nmols/ear).
Acute inflammation: Membrane permeant inositol polyphosphate analogs were administered topically and tested for inhibition of inflammatory symptoms induced by arachidonic acid on the ear of Swiss Webster mice.

[3] = test system: CF Human Nasal Epithelial (CFHNE) cells; test: Cystic Fibrosis Human Nasal Epithelial Cell Assay (Isc, Ussing chambers); assay type: cell-based
Description: CF Human Nasal Epithelial (CFHNE) Cell Isolation and Proliferation
Nasal Polyps were surgically obtained from a CF patient at Children's Hospital (Seattle, Wash.), transported on ice in a sterile container containing a 1:1 mixture of Dulbecco's modification of minimum essential medium Eagle and Ham's F-12 nutrient medium (DMEM/F-12) (Irvine Scientific, Santa Ana, Calif.) supplemented with 100 U/mL penicillin, 0.1 mg/mL streptomycin, 10 mM HEPES, and 2 mM L-glutamine. The tissue samples were aseptically removed from the transport medium and washed (repeated 5 times) by suspending in 40 mL of Joklik's modification of minimum essential medium Eagle (JMEM) at 4° C., and centrifuging at 500 rpm. The supernatant was aspirated and discarded. The tissue was then transferred to JMEM containing 200 U/mL penicillin, 0.2 mg/mL streptomycin, 0.1 mg/mL gentamycin sulfate (Clonetics, San Diego, Calif.), and 0.1 μg/mL amphotericin-B (Clonetics), and 0.1% Protease, washed an additional two times, suspended in […] in a 10 cm tissue culture dish, and incubated at 4° C. for 24 hours. The tissue samples were then gently triturated, the connective tissue aseptically removed, and the remaining cell suspension centrifuged at 1000 rpm. The supernatant was aspirated and the pellet was resuspended in 10 mL proliferation media, consisting of Keratinocyte-Serum Free Medium (KSFM) (Gibco-BRL, Grand Island, N.Y.) containing 5 ng/ml EGF (Gibco), 50 μg/mL BPE (Gibco), 5 μg/mL insulin, 5 μg/mL transferrin, 5 μg/ml sodium selenite, 10 nM 3,3′,5-triiodo-L-thyronine, 200 nM hydrocortisone, 100 U/mL penicillin, 0.1 mg/mL streptomycin, and 2 mM L-glutamine. The cell suspension was transferred to 2.10 cm tissue culture dishes coated with 3 μg/cm^2 rat-tail collagen (Type I) (Becton-Dickinson, Bedford, Mass.), incubated at 37° C. in an humidified atmosphere of 5% CO2 and 95% air. The cells were allowed to grow for 6 days (˜70% confluence) with the media being replaced with fresh media every other day. The cells were then trypsinized using 0.025% trypsin-EDTA for 5 min. The cell suspension was collected, the trypsin deactivated with 10% Fetal Bovine Serum, and centrifuged at 1000 rpm for 5 min. The cells were then counted using an hemocytometer with a yield of 3×10^6 cells per dish. The supernatant was aspirated and the cells were resuspended in KSFM and plated at a density of 10^4 cells/cm^2.
CFHNE Cell Ussing Chamber Preparation
The CFHNE cells were prepared for Ussing Chamber studies using Snapwell permeable supports (0.4 μm pore size) (Corning Costar, Cambridge, Mass.) coated with 3 μg/cm^2 rat-tail collagen (type 1). Cells were plated at 9×10^3 cells/cm^2 in KSFM. After 2 days, an air-liquid interface (ALI) was initiated in DMEM/F-12 containing: 2% Fetal Clone III (Hyclone, Logan, Utah), 2.5 μg/mL insulin, 2.5 μg/mL transferrin, 2.5 μg/mL sodium selenite, 20 nM hydrocortisone, 1.5 μM epinephrine, 50 μg/mL BPE, 1 nM 3,3′,5-triiodo-L-thyronine, 3.3 nM All-trans retinoic acid, 250 nM ethanolamine, 250 nM O-phosporylethanolamine, 100 U/mL penicillin, 0.1 mg/ml streptomycin, and 2 mM L-glutamine. The CFHNE monolayers reached maximal resistance (˜200 Ω/cm^2) 5-7 days after initiation of ALI. All media/reagents, unless otherwise specified, were supplied by Sigma Chemical Co., St. Louis, Mo.

[4] = extracellular concentration of 200 uM; cited from earlier work
[5] = macroscopic negative effects / side effects after ip and iv injection; assay type: in vivo, mouse; conditions: several weeks after treatment
[6] = preincubation with 200 μM, CFHNE monolayers

CCCOC1C(OP(=O)(OCOC(C)=O)OCOC(C)=O)C(OP(=O)(OCOC(C)=O)OCOC(C)=O)C(OP(=O)(OCOC(C)=O)OCOC(C)=O)C(OP(=O)(OCOC(C)=O)OCOC(C)=O)C1(CCC)OC(=O)CCC (racemic) [Compound A, rac-2-O-butyryl-2-C-propyl-1-O-propyl-myo-inositol 3,4,5,6-tetrakisphosphate-octakis(acetoxymethyl) ester]
Isc response to carbachol [1]: did not affect
Isc response to thapsigargin following carbachol [1]: partially reversed the inhibition of thapsigargin induced chloride secretion; also recorded: partially restores the Isc response to thapsigargin following carbachol
Ear Thickness [2]: 52.5 ± 5.5 mm × 10^−2
Isc response to subsequent stimulation with ATP ([3]; 95 μM, CFHNE): appeared to prolong the response to subsequent stimulation with ATP; also recorded: prolonged increase in Isc following ATP addition
Isc, direct effect ([3]; 95 μM, CFHNE): little direct effect
Isc, direct effect ([3]; 200 μM, added basolaterally, CFHNE (passage 3)): prolonged increase in Isc comparable in amplitude to that stimulated with ATP

CCCC12OC(C)(C)OC1C(OP(=O)(OCOC(C)=O)OCOC(C)=O)C(OP(=O)(OCOC(C)=O)OCOC(C)=O)C(OP(=O)(OCOC(C)=O)OCOC(C)=O)C2OP(=O)(OCOC(C)=O)OCOC(C)=O (racemic) [Compound B, rac-1,2-O-isopropylidene-2-C-propyl-myo-inositol 3,4,5,6-tetrakisphosphate-octakis(acetoxymethyl) ester]
Isc response to carbachol [1]: prolongs; also recorded: prolonged increase in Isc response
Isc response to thapsigargin following carbachol [1]: overcomes the inhibitory effect of carbachol pretreatment; also recorded: prolonged increase in Isc response
Isc, acute effect ([1]; applied acutely to the apical surface of T84 monolayers, one monolayer): triggers an increase in Isc; also recorded: large and prolonged increase in Isc
Ear Thickness [2]: 56.1 ± 2.1 mm × 10^−2
negative component of the ATP effect on Isc ([3]; FIG. 11 legend: preincubation at 400 μM, CFHNE, average of duplicates): reverse the negative component of the ATP effect on Isc
negative phase of Isc following ATP [3, 6]: totally reversed the negative phase, instead causing a long term increase in Isc
transient increase in Isc following ATP [3, 6]: inhibited

CCCC(=O)OC1C(OC(=O)CCC)C(OP(=O)(OCOC(C)=O)OCOC(C)=O)C(OP(=O)(OCOC(C)=O)OCOC(C)=O)C(OP(=O)(OCOC(C)=O)OCOC(C)=O)C1OP(=O)(OCOC(C)=O)OCOC(C)=O (centres unmarked) [Bt2D-myo-Ins(3,4,5,6)P4/AM]
intracellular concentration [4]: 4 µM

D-1-O-octyl-2-O-butyryl-myo-inositol 1,4,5,6-tetrakisphosphate-octakis-(propionoxymethyl)ester [INO-E3]
effectiveness by route of application ([2]; topically, intraperitoneally and orally): effective when applied topically, intraperitoneally and orally
macroscopic negative effects ([5]; ip injections up to 50 μg/animal): No macroscopic negative effects
macroscopic negative effects ([5]; iv injections of 20 μg/animal): No macroscopic negative effects
